The test system of the test is Rat platelets. The test is described as follows: Platelet aggregation inhibition (4-channel platelet lumi-aggregometer). Format: cell-based. To be noted: compound 100 μM, compared to control (vehicle), FIG. 2. As to the method: In order to evaluate the platelet aggregation activity of MBP-11902 according to Present Example 1 of the present disclosure, the platelet aggregation was activated in rat plasma with platelet aggregation factors and agonists, thrombin, collagen, ADP (adenosine diphosphate), U46619 (thromboxane A2 agonist), and PMA (phorbol-12-myristate-13-acetate), and then, the rat plasma was pretreated with vehicle (distilled water) and various doses (100, 300, and 500 μM) of MBP-11902, and then a 4-channel platelet lumi-aggregometer (Chronolog Corp, Havertown, PA) was used to measure the value indicating the platelet aggregation level, and the results are shown in FIG. 1. […]
Rat platelets were placed in HEPES-Tyrode buffer at a concentration of 3×10^8 cells/mL and pretreated with the vehicle (distilled water) and various doses (100, 300, and 500 μM) of MBP-11902 at 37° C. for 15 minutes, and then activated with collagen, thrombin, ADP, U46619 (endoperoxide/thromboxane analogs), and PMA (PKC activator), which are known as agonists in the platelet aggregation system. The platelet aggregation was induced at 1,000 rpm in a platelet aggregation system (Chronolog Corp, Havertown, PA) at 37° C. and then, the platelet aggregation level was measured.

From US20250281503A1, “DO3A-BASED ANTITHROMBOTIC AGENT OR HEMOLYTIC AGENT CONTAINING GADOLINIUM COMPLEX” (ETNOVA THERAPEUTICS CORP., priority 2022, published 2025) come the findings set out here.

`O=C(O)c1cc(-c2ccc(F)cc2F)ccc1O` [NSAID, Diflunisal]: the “platelet aggregation induced by collagen (comparative evaluation)” value (collagen 1 μg/mL) is listed as “significantly inhibit”. Moreover, under “thrombin 0.05 U/ml”, the “platelet aggregation induced by thrombin (comparative evaluation)” value was “significantly inhibit”.
